From publication PMC6144582, “The Binding of BF-227-Like Benzoxazoles to Human α-Synuclein and Amyloid β Peptide Fibrils” (Molecular Imaging, 2018)
Like-named read-outs stand apart in the source and are kept apart here.

Key:
[1] = target: T1, human α-Syn fibrils (Homo sapiens, UniProt P37840); experiment: Competition binding against 5 nM [3H]BF-227 on α-Syn fibrils; conditions: for Ki: 5 nM [3H]BF-227, Cheng-Prusoff, geometric mean (low; high errors of the geometric mean); for Ki(Aβ)/Ki(α-Syn): selectivity for α-Syn binding, ratio of Ki on Aβ fibrils to Ki on α-Syn fibrils
T1 construct: Human full-length α-Syn (NM_000345) was cloned; made in house; host or cells: Escherichia coli BL21 (D3)
Protocol: Human full-length α-Syn (NM_000345) was cloned into the ampicillin-resistant Escherichia coli expression vector PET7-7 and transformed into BL21 (D3) strains for expression. The recombinant α-Syn was expressed and purified to ≥95% purity as described previously.[6] The monomeric α-Syn was formulated in 10 mM Tris–HCl, pH 7.6, 50 mM NaCl at 5 mg/mL. For fibril formation, 500 µL of purified α-Syn monomer was subjected to continuous shaking at 1000 rpm in an Eppendorf Thermomixer at 37°C for 7 days. The monomer was removed from fibrils by high-speed centrifugation with a Beckman-Coulter tabletop Optima MAX-XP (Beckman-Coulter, Indianapolis, Indiana) ultra-centrifuge at 600 000g for 40 minutes, followed by 3 PBS/centrifugation wash steps. After each centrifugation step, the supernatant was removed and the concentration of α-Syn in the supernatant was calculated from absorbance at 280 nm. The pellet was resuspended in PBS, and the concentration of fibrils was estimated by subtracting the total amount of α-Syn in the supernatant from all the wash steps and confirmed by BCA assay before use.
(§1) Competition studies were carried out using 5 nM [^3H]BF-227. Experiments were performed in 50 mM Tris–HCl pH 7.5, 150 mM NaCl, and 0.1% bovine serum albumin in a reaction volume of 200 µL. Incubations were initiated with the addition of human α-Syn ([…]) or Aβ1-42 (0.1 μM/well) fibrils at room temperature and terminated 2 hours later by rapid vacuum filtration over Whatman GF/C 96-well Unifilters (Brandel [Gaithersburg, Maryland]) presoaked in cold wash buffer (50 mM Tris–HCl, pH7.4), followed by four 200 µL washes with cold wash buffer. Filters containing bound ligand were mixed with 50 µL Microscint-PS (Perkin-Elmer [Waltham, Massachusetts]) and counted with a MicroBeta2 Scintillation Counter (Perkin Elmer). All data points were performed in triplicate. Values for the saturation binding dissociation constant (KD) and the maximal number of binding sites (Bmax) were determined by fitting the data to the equation Y = Bmax × X/(X + KD) using nonlinear regression analysis. IC50 values were generated from the concentration–response curves using nonlinear regression analysis and converted to Ki values with the Cheng-Prusoff equation.[7] Data analysis was performed with GraphPad Prism version 7.02.
(§2) Results are expressed as inhibition constants (Ki, nM) corrected for ligand occupancy.[7] Each value is a geometric mean from the indicated numbers of experiments (n), with the numbers in parentheses indicating the low and high errors of the geometric mean. Also shown are the Log P, tPSA, and CLogP values for these compounds. These can be compared with means for the 5 Aβ imaging agents which can serve as an empirical training set to judge the likely in vivo behavior of new compounds.

[2] = target: T2, Aβ1-42 fibrils (Homo sapiens, UniProt P05067); experiment: Competition binding against 5 nM [3H]BF-227 on Aβ1-42 fibrils; conditions: 5 nM [3H]BF-227, Cheng-Prusoff; geometric mean (low; high errors of the geometric mean); read-out: Aβ Ki
T2 construct: Aβ1-42 peptide 5 mg, Cat #20276-5 (Anaspec, Fremont, California); purchased Anaspec 20276-5
T2 sequence (P05067 672-713 limits assumed): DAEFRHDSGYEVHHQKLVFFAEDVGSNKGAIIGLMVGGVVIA
Protocol: The clear peptide solution was transferred to a 15 mL conical tube. […] Subsequently, 4 mL of Milli-Q-H2O was added to the conical tube followed by the addition of 125 µL of 1 M Tris–HCl, pH 7.5 with gentle mixing of the solution. The final volume was 5 mL, with the starting peptide concentration at 1 mg/mL. The peptide solution was divided into 5 × 1 mL aliquots with 1.5 mL Eppendorf tubes and incubated for 72 hours at 37°C with shaking at 1000 rpm in an Eppendorf Thermomixer. […] Fibril stock solutions were stored at −80°C.
as §1, with “Experiments” for “Competition studies were carried out using 5 nM [^3H]BF-227. Experiments”, “equation.[7]” for “equation.[7] Data analysis was performed with GraphPad Prism version 7.02.”
as §2, with “Also shown are the Log P, tPSA, and CLogP values for these compounds.” left out

[3] = test system: α-Syn-positive, Aβ-negative dementia with Lewy body human brain homgenates; parameters: method as in PMID 28826526; conditions: cited from earlier work
[4] = target: synthetic Aβ fibrils; parameters: method as in PMID 17401091; conditions: reported value; cited from earlier work
[5] = target: synthetic Aβ fibrils; parameters: method as in PMID 19576880; conditions: reported value; cited from earlier work
[6] = target: synthetic α-Syn fibrils; parameters: method as in PMID 19576880; conditions: reported value; cited from earlier work
[7] = test system: Lewy body; parameters: method as in PMID 19576880; conditions: high concentration (100 μM); cited from earlier work

SMILES	Ki [1]	Ki(Aβ)/Ki(α-Syn) [1]	Ki [2]	further results
CN(C)c1ncc(/C=C/c2nc3ccc(OCCOCCOCCF)cc3o2)s1 [Compound 8]	52 nM	0.25	13 nM	–
NCCNC(=O)c1ccc(Cl)cc1 [RO-16-6491, reference compound]	> 9000 nM	–	> 7000 nM	–
CNc1ccc(/C=C/c2ccc(OCCOCCOCCF)nc2)cc1 [Florbetapir (AV-45), reference compound]	24 nM	0.46	12 nM	–
CNc1ccc(-c2nc3ccc(O)cc3s2)cc1 [PiB, reference compound]	55 nM	–	–	–
CN(C)c1ncc(/C=C/c2nc3ccc(OCCCCCCCF)cc3o2)s1 [Compound 6]	212 nM	0.13	27 nM	–
CN(C)c1ncc(/C=C/c2nc3ccc(OCCOCCOCCOCCOCCF)cc3o2)s1 [Compound 10]	75 nM	0.24	18 nM	–
CN(C)c1ncc(C=Cc2nc3ccc(OCCF)cc3o2)s1 [[^18F]BF-227]	–	–	–	Binding to α-Syn-positive, Aβ-negative dementia with Lewy body human brain homogenates [3]: failed to bind
CN(C)c1ncc(/C=C/c2nc3ccc(OCCOCCOCCOCCF)cc3o2)s1 [Compound 9]	100 nM	0.26	26 nM	–
CN(C)c1ncc(/C=C/c2nc3ccc(OCCOCCF)cc3o2)s1 [Compound 7]	83 nM	0.13	11 nM	–
Cc1ccc2c(sc(-c3ccc4c(c3)sc(-c3ccc(N(C)C)cc3)[n+]4C)[n+]2C)c1S(=O)(=O)O [reference compound]	> 9000 nM	≤0.2	2150 nM	–
CN(C)c1ncc(/C=C/c2nc3ccc(OCCCCF)cc3o2)s1 [Compound 3]	378 nM	0.08	31 nM	–
CN(C)c1ncc(/C=C/c2nc3ccc(OCCCCCF)cc3o2)s1 [Compound 4]	297 nM	0.09	28 nM	–
C#CCN(C)CCCOc1ccc(Cl)cc1Cl [Clorgyline, reference compound]	> 9000 nM	–	> 5000 nM	–
CNc1ccc(-c2nc3ccc(O)cc3s2)cc1F [Flutemetamol, reference compound]	48 nM	1.35	65 nM	–
CN(C)c1ncc(/C=C/c2nc3ccc(OCCCF)cc3o2)s1 [Compound 2]	157 nM	0.06	9.01 nM	–
CN(C)c1ncc(/C=C/c2nc3ccc(OCCCCCCF)cc3o2)s1 [Compound 5]	462 nM	0.05	23 nM	–

Second part, led by results:

Ki [1]	Ki(Aβ)/Ki(α-Syn) [1]	Ki [2]	SMILES	further results
276 nM	0.35	96 nM	CN(C)c1ncc(/C=C/c2nc3cc(I)ccc3o2)s1 [Compound 12]	–
328 nM	3.8	1250 nM	Fc1ccc2nc(/C=C/c3ccccc3)oc2c1 [Compound 13]	–
184 nM	–	76 nM	COc1cc(/C=C/c2ccc(N)cc2)ccc1/C=C/c1ccc(N)cc1 [BMB, 1,4-bis(paminostyryl)-2-methoxy benzene, reference compound]	–
64 nM	–	–	CNc1ccc(-c2nc3ccccc3s2)cc1 [BTA-1, reference compound]	–
32 nM	1.34	42 nM	CNc1ccc(-c2cc3cc(O)ccc3o2)c(F)n1 [Flutafuranol (NAV 4694), reference compound]	–
286 nM	5.1	1450 nM	Fc1ccc2nc(/C=C/c3cncs3)oc2c1 [Compound 15]	–
53 nM	0.23	12 nM	CN(C)c1ncc(C=Cc2nc3ccc(OCCF)cc3o2)s1 [Compound 1, 2-(2-[2-dimethylaminothiazol-5-yl]ethenyl)-6-(2-[fluoro]ethoxy)benzoxazole]	Kd [4]: 4.1 nM; Kd [5]: 1.31 nM; Kd [6]: 9.3 nM; Lewy body fluorescence in histochemical analysis [7]: led to Lewy body fluorescence
–	0.30	223 nM	CN(C)c1ncc(/C=C/c2nc3ccc(I)cc3o2)s1 [Compound 11]	–
238 nM	2.2	528 nM	Fc1ccc2oc(/C=C/c3ccccc3)nc2c1 [Compound 14]	–
